For series [1] the following is noted: cited from earlier work.
The nature of series [2]: Solubility of literature quinones in aqueous electrolytes, reported or estimated from references.
Method: However, such value can be roughly estimated in the case of ref [4] by using equilibration tests reported in the figure 2e of this publication for PTO molecules.
In the table, (a) is for Estimated at mAM/Vel= 3/0.5 mg/ml and (b) vs. the maximum observed capacity (c) Estimated from Fig2e ref [4], that is 3.6% capacity loss upon 24h rest (OCV) in reduced state.
The conditions of series [3]: for saturation limit in comparison with compound 2 (2,5 DTBHQ) / saturation limit: 1 week at room temperature; for saturation limit: argon.
Series [4] in a line: physchem. To be noted: water.
Setting [5] is: 1.25 M Zn(CH3COO)2, pH 4-5, 10080 min.

Values after ≈ are worked out from the molar mass of the structure shown. Where two headings read alike, the source gives them in different places.

Consider `Oc1ccc(O)cc1` [1,4-benzohydroquinone], for which the “solubility in water compared with 1,4-benzoquinone” value in series [1] (water, background statement) is reported as “six times more soluble”.

Consider `O=c1c(=O)c2cccc3c2-c2c1cccc2c(=O)c3=O` [PTO], for which the Solubility oxidized state result is given as “Soluble (Fig. S21)” in series [1] (2.5M Li2SO4, pH 7, ref [5]) and 0.0047 (Fig. S18) mmol/L in series [1] (4.4M H2SO4, pH 0, ref [5]). The “Solubility factor vs. 2,5 DTBHQ” value is listed as more than 11 in series [2] (2M ZnSO4, pH 4-5, ref [4]) and more than 10000 in series [2] (2.5M Li2SO4, pH 7, ref [5]). Also, the Solubility reduced state result in series [2] (4.4M H2SO4, pH 0, ref [5], presumed) is listed as “Presumed Not soluble”. Also, the “maximum solubility relative to compound 2 (2,5 DTBHQ)” value in series [2] (estimated from ref [4], reduced state) is listed as “approx. 11 times”.

On to `NC1=C(N)C(=O)C(N)=C(N)C1=O` [TABQ], for which the Solubility oxidized state in series [1] (1M ZnSO4, pH 4-5, ref [1]) is listed as 1.7 mmol/L (≈ 286 µg/mL). Moreover, the “Solubility factor vs. 2,5 DTBHQ” value in series [2] (1M ZnSO4, pH 4-5, ref [1]) is recorded as approximately 100.

As for `O=C1C(O)=C(O)C(=O)C(O)=C1O` [THBQ], in series [1] (1M ZnSO4, pH 4-5, ref [1]), the Solubility oxidized state was 3.4 mmol/L (≈ 585 µg/mL). Besides, in series [2] (1M ZnSO4, pH 4-5, ref [1]), the “Solubility factor vs. 2,5 DTBHQ” value was approximately 100.

By solubility (thermodynamic) is commonly meant solubility found after equilibrating the solid with the medium. In series [3] (setting [5]), `CC(C)(C)C1=CC(=O)C(C(C)(C)C)=CC1=O` [compound 1] displayed a Solubility oxidized state of 26 µM (≈ 5.73 µg/mL) and a Solubility reduced state of 204 µM (≈ 44.9 µg/mL). Further, the “saturation limit in comparison with compound 2 (2,5 DTBHQ)” value in series [3] (acetate electrolytes) is given as “nearly ten times lower”. In series [3] (acetic acid/potassium acetate pH 4.8, acetic acid/zinc acetate pH 4.5, zinc acetate 1.25 M pH 4.2), this molecule displayed a saturation limit of 26.16 µmol/L. Further, the thermodynamic solubility at 1 week in series [4] stood at 5.7 µg/mL (≈ 25.9 µM).

In turn, `CC(C)(C)c1cc(O)ccc1O` [compound 8] displayed a Solubility reduced state in series [3] (setting [5]) of 20400 µM (≈ 3390 µg/mL). In series [3] (acetate electrolytes), the “saturation limit in comparison with compound 2 (2,5 DTBHQ)” value is recorded as approximately 100 times and the saturation limit was 20.4 mM/L.

`O=C1C(=O)C(Cl)=C(Cl)C(Cl)=C1Cl` [o-TCBQ]: the Solubility oxidized state in series [1] (1M ZnSO4, pH 4-5, ref [1]) was 2.3 mmol/L (≈ 566 µg/mL). For the same molecule, in series [2] (1M ZnSO4, pH 4-5, ref [1]), the “Solubility factor vs. 2,5 DTBHQ” value is given as approximately 100.

Turning to `O=C1C(Cl)=C(Cl)C(=O)C(Cl)=C1Cl` [p-TCBQ], the Solubility oxidized state result in series [3] (pH 7) is reported as “Slightly soluble”.

The values above are taken from patent EP4475229A1, “QUINONE-TYPE MOLECULES FOR ZINC-ION AQUEOUS BATTERIES” (Centre National de la Recherche Scientifique, priority 2023, dated 2024).
